Reference: the supplement of paper PMC10307832

Tests used:
Test in all cases: relative viability (nuclei count vs DMSO), 5 days (fraction); higher = more cells survive
[1] = compound: Nc1ccccc1NC(=O)c1ccc(CNC(=O)OCc2cccnc2)cc1 [Entinostat] + C[C@@H](Oc1cc(-c2cnn(C3CCNCC3)c2)cnc1N)c1c(Cl)ccc(F)c1Cl [Crizotinib] (partner 1 µM)
Method in brief: (§1)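 The day after seeding in 1536-well plates, lung cancer cell lines were treated by pin tool with a single drug, or with a fixed anchor-drug dose together with five library-drug doses (not always all listed) in √10 steps. After 5 days, a combined fix-and-stain solution (final 0.05% Triton X-100, 1% formaldehyde, 1 ug/ml Hoechst) was added. Nuclei counted on 4× images gave relative viability as treated counts over vehicle counts, reported as the median of duplicate plates.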

[2] = compound: Nc1ccccc1NC(=O)c1ccc(CNC(=O)OCc2cccnc2)cc1 [Entinostat] + COc1cccc2cc(-c3nc([C@H]4CC[C@H](C(=O)O)CC4)n4ncnc(N)c34)[nH]c12 [OSI-027] (partner 0.5 µM)
Method in brief: as §1

[3] = compound: C1COCCN1C2=NC(=NC3=C2OC4=C3C=CC=N4)C5=CC(=CC=C5)NC(=O)C6=CN=C(C=C6)N + O=C(CCCCCCC(=O)Nc1ccccc1)NO [Vorinostat] (partner 1 µM)
Method in brief: as §1

| Cell Line | relative viability ([1]; first compound 0.02 µM) | relative viability ([1]; first compound 0.06325 µM) | relative viability ([1]; first compound 0.2 µM) | relative viability ([1]; first compound 0.6325 µM) | relative viability ([1]; first compound 2 µM) | relative viability ([2]; first compound 0.02 µM) | relative viability ([2]; first compound 0.06325 µM) | relative viability ([2]; first compound 0.2 µM) | relative viability ([2]; first compound 0.6325 µM) | relative viability ([2]; first compound 2 µM) | relative viability ([3]; first compound 0.02 µM) | relative viability ([3]; first compound 0.06325 µM) | relative viability ([3]; first compound 0.2 µM) | relative viability ([3]; first compound 0.6325 µM) | relative viability ([3]; first compound 2 µM) |
| --- | --- | --- | --- | --- | --- | --- | --- | --- | --- | --- | --- | --- | --- | --- | --- |
| NCI-H650 | 0.673 | 0.564 | 0.586 | 0.473 | 0.222 | 0.614 | 0.614 | 0.586 | 0.489 | 0.261 | 0.495 | 0.412 | 0.474 | 0.515 | 0.392 |
| LU99A | 0.537 | 0.592 | 0.565 | 0.38 | 0.267 | 0.308 | 0.314 | 0.353 | 0.27 | 0.296 | 0.435 | 0.546 | 0.365 | 0.418 | 0.309 |
| NCI-H2347 | 0.686 | 0.581 | 0.653 | 0.5 | 0.408 | 0.292 | 0.284 | 0.175 | 0.217 | 0.153 | 0.582 | 0.494 | 0.645 | 0.528 | 0.559 |
| NCI-H2009 | 0.984 | 1.06 | 0.965 | 0.877 | 0.556 | 0.59 | 0.691 | 0.628 | 0.636 | 0.451 | 0.697 | 0.82 | 0.73 | 0.7 | 0.739 |
| HCC-827 | 0.868 | 0.889 | 0.699 | 0.559 | 0.384 | 0.713 | 0.749 | 0.688 | 0.402 | 0.292 | 0.792 | 1.05 | 0.868 | 0.661 | 0.811 |
| NCI-H661 | 0.907 | 0.909 | 1.01 | 0.834 | 0.633 | 0.688 | 0.757 | 0.724 | 0.54 | 0.629 | 0.766 | 0.803 | 0.769 | 0.806 | 0.529 |
| CAL-12T | 0.7 | 0.732 | 0.864 | 0.594 | 0.251 | 0.583 | 0.719 | 0.698 | 0.601 | 0.305 | 0.789 | 1 | 0.769 | 0.601 | 0.431 |
| PC-14 | 0.849 | 0.928 | 0.916 | 0.37 | 0.159 | 0.814 | 0.829 | 0.779 | 0.235 | 0.0869 | 0.784 | 0.816 | 0.648 | 0.603 | 0.362 |
| NCI-H23 | 0.5 | 0.545 | 0.407 | 0.39 | 0.166 | 0.711 | 0.774 | 0.648 | 0.463 | 0.287 | 0.609 | 0.635 | 0.5 | 0.473 | 0.468 |
| SK-LU-1 | 0.935 | 0.756 | 0.733 | 0.572 | 0.511 | 0.357 | 0.448 | 0.35 | 0.261 | 0.231 | 0.741 | 0.742 | 0.736 | 0.647 | 0.482 |
